Measured values from US5270206A, “Enzymatic resolution of endo-bicyclo[2.2.1]heptan-2-ol and derived pharmaceutical agents” (Pfizer Inc., priority 1992, dated 1993).
pIC50: −log10 of the molar value.

How the values were obtained:
PDEIV = experiment: Inhibition of Pulmonary Phosphodiesterase (PDEIV); assay type: biochemical; conditions: guinea pig lung PDEIV, 1 μM [3H]-cAMP, 37° C., 10 minutes; read-out: IC50 (concentration inhibiting 50% of specific hydrolysis of [3H]cAMP to [3H]5'AMP)
Description: Lung tissue from guinea pigs was placed in a homogenization buffer solution (20 mM Bistris, 5 mM 2-mercaptoethanol, 2 mM benzamidine, 2 mM EDTA, 50 mM sodium acetate, pH 6.5) at a concentration of 10 ml/gm of tissue. The tissue was homogenized using a Tekmar Tissumizer at full speed for 10 seconds. Phenylmethylsulfonyl fluoride (PMSF, 50 mM in 2-propanol) was added to the buffer immediately prior to homogenization to give a final PMSF concentration of 50 μM. The homogenate was centrifuged at 12,000×g for 10 minutes at 4° C. The supernatant was filtered through gauze and glass wool and then applied to a 17×1.5 cm column of DEAE-Sepharose CL-6B, pre-equilibrated with homogenization buffer, at 4° C. A flow rate of 1 ml/min was used. After the supernatant had passed through the column, the column is washed with a volume of homogenization buffer at least two times that of the supernatant. […] Fractions were saved based on specific PDEIV activity, determined by [3H]cAMP hydrolysis and the ability of a […]. […]
The reaction tubes were shaken and placed in a water bath (37° C.) for 10 minutes, at which time the reaction was stopped by placing the tubes in a boiling water bath for 2 minutes. […] After vortexing, 1 ml of the elution was added to 3 ml Atomlight scintillation fluid in an appropriate vial, vortexed, and counted for [3H].
Percent inhibition is determined by the formula: [formula] […]

[1] = system: eosinophil migration into sensitized lung tissue; experiment: Inhibition of eosinophil migration into sensitized lung tissue challenged with antigen in guinea pigs (EPO response in lung lavage); assay type: in vivo, guinea pig; conditions: Cavia porcellus, po, guinea pigs sensitized with anti-OA IgG1, dosed P.O., ovalbumin aerosol, lung lavage after 18 hours, read-out: ED50 (inhibition of specific EPO response due to antigen challenge)
Description: Normal Hartley guinea pigs (300-350 grams) delivered from Charles River Laboratories were housed 5-7 days before sensitization. Guinea pigs were then sensitized with 0.5 mg/kg anti-OA IgGl or saline as control. After 48-72 hours, guinea pigs were dosed P.O. in groups of six animals each with compounds at up to 32 mg/kg using 2% Tween 80 as vehicle. After 1-1.5 hours the animals were injected i.p. with 5 mg/kg pyrilamine. Thirty minutes following pyrilamine administration, animals were exposed to 10 minutes of a 0.1% ovalbumin (OA) aerosol followed by a 15 minute cloud decay period in a Tri-R Airborne Infection Apparatus (Compression air flow=20 L/min, main air flow=8.4 L/min). Guinea pigs were removed from the apparatus and caged for 18 hours prior to sacrifice and the following lung lavage procedure. […]
The aliquoted sample with Triton was diluted with 1 ml PBS/0.1% Triton buffer (pH 7.0). […] The O.D. of the mixture was measured at 490 nm, with background O.D. (blank tube) subtracted out.
Duplicate O.D. readings were averaged to obtain a single value for each animal. Average O.D. +/- standard error is calculated using the six obtained values within each group of animals. Specific EPO response due to antigen challenge is calculated by: […]
Percent inhibition of specific EPO response due to drug pretreatment is calculated by: [formula]

[2] = system: phosphodiesterases prepared from cerebral cortices of rats; conditions: phosphodiesterases from rat cerebral cortices; noted at page 25 of W087/06576; cited from earlier work
[3] = system: antigen-induced skin edema; experiment: Inhibition of Skin Edema in Guinea Pigs Sensitized to Ovalbumin; assay type: in vivo, guinea pig; conditions: 32 mg/Kg oral, two guinea pigs, intradermal ovalbumin challenge one hour after dosing, read after twenty minutes
Description: Four guinea pigs (Hartley, male, 350-400 g) were sensitized with anti-ovalbumin IgGI antibody. Two guinea pigs were orally dosed with 32 mg/Kg of the test compound and two other guinea pigs were dosed with vehicle (2% Tween-80). One-hour after dosing, each guinea pig was injected intraveneously with 1 ml of Evan Blue (7 mg/ml) and then his skin was challenged intradermally with 0.1 ml of ovalbumin (0.1%) or PBS. Twenty minutes after challenge, the skin was removed and skin edematous site (circular blue spots at challenge sites) was examined visually.

pIC50 (PDEIV): 6.30
SMILES: COc1ccc(C2CNC(=O)NC2)cc1O[C@H]1C[C@@H]2CC[C@H]1C2 (relative stereo) [5-(3-(exo-bicyclo[2.2.1]hept-2-yloxy)-4-methoxyphenyl)-3,4,5,6-tetrahydropyrimidin-2(1H)-one]
ED50 [1]: 10 mg/kg
in vitro activity as an inhibitor of phosphodiesterases [2]: possesses in vitro activity as an inhibitor
intensity and area of blue spots (skin edema) at antigen-challenged sites vs vehicle-dosed animals [3]: markedly reduced
